Literature values in patent US20060089285A1, “Stabilized chlorine bleach in alkaline detergent composition and method of making and using the same” (priority 2004, published 2006).

How the values were obtained:
[1] = OCl-/HOCl equilibrium, ambient temperature
[2] = in an alkaline liquid detergent; prior art statement

Row | pKa [1] | shelf stability [2] | Structure (SMILES)
1 | 7.5 |  | OCl [HOCl]
2 |  | about 3 months | OCl [sodium hypochlorite bleach, Sodium hypochlorite]
